The values that follow come from patent US9447134B2 (priority 2012, dated 2016).

As a reminder, the IC50 is the midpoint of a concentration-inhibition curve.

The structures appear in SMILES notation.

One data set deals with F. tularensis IMPDH (Francisella tularensis, UniProt Q5NFC2). Briefly: biochemical.
In a further data set the target is B. anthracis IMPDH (Bacillus anthracis, UniProt A0A6L8P2U9). The data set is described as follows: biochemical.
In the next data set the target is S. pyogenes IMPDH (Streptococcus pyogenes, UniProt P0C0H6). Briefly: biochemical.
The subject of the next data set is Bu. mallei IMPDH. It is filed as biochemical, Burkholderia mallei. To be noted: FIG. 24.
Another data set addresses T1, CpIMPDH (Cryptosporidium parvum, UniProt Q8T6T2).
T1 sequence (Q8T6T2 1-400): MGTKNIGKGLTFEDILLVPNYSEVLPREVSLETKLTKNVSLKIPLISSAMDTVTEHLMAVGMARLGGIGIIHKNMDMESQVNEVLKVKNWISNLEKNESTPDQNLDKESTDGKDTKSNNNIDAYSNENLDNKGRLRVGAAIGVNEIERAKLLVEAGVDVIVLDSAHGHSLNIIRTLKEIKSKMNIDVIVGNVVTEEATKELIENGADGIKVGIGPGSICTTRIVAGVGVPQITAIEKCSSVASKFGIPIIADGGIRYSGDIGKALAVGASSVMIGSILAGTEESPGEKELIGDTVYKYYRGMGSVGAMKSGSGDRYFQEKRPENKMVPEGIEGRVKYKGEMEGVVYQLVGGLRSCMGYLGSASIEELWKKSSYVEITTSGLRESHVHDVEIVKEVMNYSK
The note with it: read-out: IC50 against CpIMPDH.

The nature of data set [1]: Plasma pharmacokinetics in C57BL/6 mice. It is filed as in vivo, mouse. As to the method:
FIG. 32 tabulates the pharmacokinetic parameters for urea CpIMPDH inhibitors. C57BL/6 mice received a single dose of 250 mg/kg in 10% DMSO/corn oil by oral gavage.
Given the limited efficacy of current treatments, the pharmacokinetic and physicochemical properties required for in vivo efficacy have not been established. […] P82 is the primary product of P83 metabolism, so the concentration of P82 in plasma was also measured during P83 treatment.
PK was assessed at either the Stony Brook Translation Experimental Laboratory Therapeutics (Stony Brook, NY) or GVK Biosciences (Hyderabad, India).

Data set [2] concerns Caco-2 cells. Briefly: Uptake in Caco-2 cells. Format: in vitro ADME, human. To be noted: extracellular concentration 10 μM. The protocol:
FIG. 33 tabulates urea CpIMPDH inhibitor permeability and uptake in Caco-2 TC7 cells. All compounds at 10 μM, pH 7.4 on both sides. Solid recovery >80% in all cases. a. Approximate intracellular concentration, assuming 4 μL of water for 1 mg of cellular protein.
To further investigate the relationship between intestinal accumulation and antiparasitic activity, we measured the uptake of the CpIMPDH inhibitors in Caco-2 cells, a widely used model of human intestinal epithelial cells. Uptake varied over a range of 2000-fold among the eight CpIMPDH inhibitors (FIG. 33). […] All of the other compounds accumulated intracellular concentrations in excess of the extracellular concentration. […] The concentrations of all the other compounds were lower by at least a factor of 10, but nevertheless exceeded the concentrations required to inhibit CpIMPDH.

In data set [3] the test system is Caco-2 cells. Briefly: Efflux from preloaded Caco-2 cells. Format: in vitro ADME, human. To be noted: preincubated with 100 μM. The protocol: FIG. 37 depicts the amount of P131 remaining in Caco-2 cells after the cells were loaded with different concentrations of P131 for 2 h at 37° C. in HBSS. The efflux tin is −1 h for loading at 100 μM and 2 h for 20 μM and 5 μM.
We preloaded Caco-2 cells with 5, 20 or 100 μM P131, then measured efflux (FIG. 37). The initial intracellular concentrations of P131 were dose dependent and scaled with the extracellular concentration for the 5 and 20 μM preincubation conditions. […] P131 efflux was very slow under all three conditions, with tin of 1-2 h.
A general note: Passage across Caco-2 layers is used to estimate intestinal permeability.

Another data set addresses A. baumannii IMPDH (Acinetobacter baumannii, UniProt D0CF46). The data set is described as follows: biochemical.
Another data set has as its system C. parvum. To be noted: IL-12 knockout mice, 250 mg/kg daily oral gavage.
The test system of a further data set is gut microbiota. To be noted: 250 mg/kg daily, 7 days, compared with vehicle.
Data set [4] can be described thus: Tissue distribution of P131 in mice. To be noted: 24 h after a single 83 mg/kg oral dose.

B. anthracis IMPDH, sequence (A0A6L8P2U9 1-487): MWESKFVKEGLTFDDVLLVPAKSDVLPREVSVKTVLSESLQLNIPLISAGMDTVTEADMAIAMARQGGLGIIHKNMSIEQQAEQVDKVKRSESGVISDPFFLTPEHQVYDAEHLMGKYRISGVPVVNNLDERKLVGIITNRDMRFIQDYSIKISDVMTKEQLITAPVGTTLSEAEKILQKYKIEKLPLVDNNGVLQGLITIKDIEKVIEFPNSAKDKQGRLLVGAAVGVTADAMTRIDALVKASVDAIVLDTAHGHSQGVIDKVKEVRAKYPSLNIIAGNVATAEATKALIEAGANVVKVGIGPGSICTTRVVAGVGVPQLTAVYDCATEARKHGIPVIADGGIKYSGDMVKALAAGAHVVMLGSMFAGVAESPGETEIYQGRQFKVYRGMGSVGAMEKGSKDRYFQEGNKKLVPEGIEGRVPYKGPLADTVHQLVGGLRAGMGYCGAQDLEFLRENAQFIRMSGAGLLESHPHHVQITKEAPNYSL
F. tularensis IMPDH, sequence (Q5NFC2 1-486): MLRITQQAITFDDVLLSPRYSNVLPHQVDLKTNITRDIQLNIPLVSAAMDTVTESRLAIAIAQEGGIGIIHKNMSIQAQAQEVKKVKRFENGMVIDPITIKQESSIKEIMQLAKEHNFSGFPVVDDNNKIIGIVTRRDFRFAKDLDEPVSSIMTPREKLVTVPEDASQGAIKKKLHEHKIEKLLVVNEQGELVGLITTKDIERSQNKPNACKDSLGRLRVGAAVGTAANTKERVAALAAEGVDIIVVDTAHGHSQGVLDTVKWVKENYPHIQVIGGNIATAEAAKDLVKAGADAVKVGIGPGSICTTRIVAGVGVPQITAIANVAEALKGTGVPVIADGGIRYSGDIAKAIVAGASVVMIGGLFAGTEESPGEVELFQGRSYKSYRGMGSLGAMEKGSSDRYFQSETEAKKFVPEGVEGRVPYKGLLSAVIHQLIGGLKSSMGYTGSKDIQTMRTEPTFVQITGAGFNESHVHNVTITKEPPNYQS
A. baumannii IMPDH, sequence (D0CF46 entry or part of it): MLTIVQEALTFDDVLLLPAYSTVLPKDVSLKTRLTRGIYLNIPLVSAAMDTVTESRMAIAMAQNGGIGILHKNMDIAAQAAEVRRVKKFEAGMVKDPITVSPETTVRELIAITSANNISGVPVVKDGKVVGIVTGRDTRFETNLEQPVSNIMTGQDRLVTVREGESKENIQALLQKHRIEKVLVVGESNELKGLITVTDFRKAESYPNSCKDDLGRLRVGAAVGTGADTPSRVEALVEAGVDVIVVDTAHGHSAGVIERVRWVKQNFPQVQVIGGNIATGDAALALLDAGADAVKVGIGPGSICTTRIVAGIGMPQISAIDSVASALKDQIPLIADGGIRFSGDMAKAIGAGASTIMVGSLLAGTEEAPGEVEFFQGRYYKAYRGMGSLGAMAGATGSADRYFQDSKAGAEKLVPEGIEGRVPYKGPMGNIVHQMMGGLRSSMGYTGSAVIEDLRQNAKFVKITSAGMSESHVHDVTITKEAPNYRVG
S. pyogenes IMPDH, sequence (P0C0H6 whole entry): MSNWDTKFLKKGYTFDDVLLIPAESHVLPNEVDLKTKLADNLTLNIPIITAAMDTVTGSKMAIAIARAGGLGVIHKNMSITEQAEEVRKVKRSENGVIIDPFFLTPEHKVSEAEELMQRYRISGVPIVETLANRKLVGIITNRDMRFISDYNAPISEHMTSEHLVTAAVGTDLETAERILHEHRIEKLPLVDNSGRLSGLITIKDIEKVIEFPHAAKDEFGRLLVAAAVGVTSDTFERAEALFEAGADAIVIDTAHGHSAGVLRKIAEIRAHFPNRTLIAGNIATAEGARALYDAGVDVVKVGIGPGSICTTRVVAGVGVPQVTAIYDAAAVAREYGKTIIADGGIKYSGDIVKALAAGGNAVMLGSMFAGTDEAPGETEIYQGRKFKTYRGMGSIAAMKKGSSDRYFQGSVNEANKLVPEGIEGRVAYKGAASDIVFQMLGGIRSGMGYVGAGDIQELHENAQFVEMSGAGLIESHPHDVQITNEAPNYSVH

With `Cn1nc(CC(=O)Nc2ccc3oc4ccccc4c3c2)c2ccccc2c1=O` [Compound D73, N-(dibenzo[b,d]furan-2-yl)-2-(3-methyl-4-oxo-3,4-dihydrophthalazin-1-yl)acetamide], the IC50 on F. tularensis IMPDH is 60 nM; against B. anthracis IMPDH, 270 nM; at S. pyogenes IMPDH, over 100000 nM; with Bu. mallei IMPDH it was 100 nM; on CpIMPDH, 4 nM.

Turning to `CC(=NOCCN)c1cccc(C(C)(C)NC(=O)Nc2ccc(Cl)c([N+](=O)[O-])c2)c1` [Compound P131], the plasma half-life in data set [1] (250 mg/kg single oral dose, C57BL/6 mice) was found to be 4 h. The Cmax in data set [1] (250 mg/kg single oral dose, C57BL/6 mice, read-out: maximal plasma concentration (Cmax)) turned out to be 9 µM. Moreover, the “plasma pharmacokinetic behavior / systemic distribution (in words)” value in [1] (mouse, in vivo) was “poor systemic distribution”. For the same compound, in the data set on Caco-2 cells [2], the “uptake/accumulation in Caco-2 cells (in words)” value is “millimolar concentrations”. Moreover, the “cytotoxicity to Caco-2 cells” value with Caco-2 cells [3] is “Some cytotoxicity”. For the same compound, the IC50 came out at 210 nM on B. anthracis IMPDH and 710 nM on A. baumannii IMPDH. Further, the “in vivo antiparasitic activity, fecal oocysts (in words)” value in the data set with C. parvum was “anticryptosporidial activity”. The “impact on fecal microbiota” value with gut microbiota is “no additional impact”. The “intestine and feces concentration over IC50 for CpIMPDH inhibition” value in data set [4] is given as “more than 100 fold”.
